Laboratory results: patent US11795177B2, “Substituted quinoline analogs as aldehyde dehydrogenase 1A1 (ALDH1A1) inhibitors” (THE UNITED STATES OF AMERICA, AS REPRESENTED BY THE …, priority 2017, dated 2023)
Where a name gives a salt, the structure may show the parent alone.

Legend:
ALDH1A1 enzyme = biological target: T1, ALDH1A1 enzyme (Homo sapiens, UniProt P00352); assay: ALDH1A1 enzymatic assay (in vitro); type: biochemical; conditions: ALDH1A1 enzyme 20 nM, NAD+ 1 mM, propionaldehyde 80 μM; read-out: ALDH1A1 IC50
T1 sequence (P00352 1-501): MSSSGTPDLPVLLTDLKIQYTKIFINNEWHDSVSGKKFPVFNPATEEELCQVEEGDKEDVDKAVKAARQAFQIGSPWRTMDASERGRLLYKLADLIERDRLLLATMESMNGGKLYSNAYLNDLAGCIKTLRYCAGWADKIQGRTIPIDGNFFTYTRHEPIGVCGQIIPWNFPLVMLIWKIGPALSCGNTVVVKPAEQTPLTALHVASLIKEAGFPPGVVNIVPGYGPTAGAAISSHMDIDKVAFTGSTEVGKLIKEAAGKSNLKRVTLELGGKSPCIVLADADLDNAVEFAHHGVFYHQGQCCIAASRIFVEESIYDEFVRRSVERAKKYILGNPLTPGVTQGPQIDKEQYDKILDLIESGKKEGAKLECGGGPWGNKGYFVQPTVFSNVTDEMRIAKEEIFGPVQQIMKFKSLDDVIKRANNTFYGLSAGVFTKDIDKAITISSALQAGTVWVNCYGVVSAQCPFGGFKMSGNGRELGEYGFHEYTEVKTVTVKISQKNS
Method: Example 358. ALDH1A1 Enzymatic Assay (In Vitro Assay)
3 μL of ALDH1A1 enzyme (final concentration 20 nM) or assay buffer (100 mM HEPES pH 7.5 with 0.01% Tween 20) were dispensed into a 1,536-well solid-bottom black plate (Greiner Bio One, Monroe, N.C.) followed by pin-tool transfer (23 nL) of candidate inhibitors (final concentration range 968 pM to 57.2 μM) and control (Bay 11-7085, final concentration range 1.31 nM to 2.86 μM). Samples were incubated (RT, protected from light) for 15 minutes followed by a 1 μL substrate addition of NAD^+ and Propionaldehyde (final concentrations of 1 mM and 80 μM, respectively). Plates were centrifuged at 1,000 rpm for 15 seconds, then read in kinetic mode on a ViewLux High-throughput CCD imager (Perkin-Elmer) equipped with standard UV fluorescence optics (340 nm excitation, 450 nm emission) for 10 minutes. The change in fluorescence intensity over the 10-minute reaction period was normalized against no-inhibitor and no-enzyme controls and the resulting percent inhibition data were fitted for biological activity.

MIA PaCa-2 cells = assay: MIA PaCa2 cell-based assay (1,536-well high-content imaging ALDEFLUOR assay); design: species or system human; conditions: Homo sapiens, 0.5 h, ALDEFLUOR BAAA substrate 500 nM, 30 minutes
Procedure, shortened: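 High-content ALDEFLUOR imaging readout: BAA-retaining cells in FITC channel scored against Hoechst-counted nuclei. Before imaging, MIA PaCa-2 cells seeded at 1,000 per well received final 500 nM BAAA and 0.5 nM Hoechst with compounds in 16-point series (1.4 nM to 47.8 μM), 30 min, 37° C.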

IC50 (ALDH1A1 enzyme) [µM]	IC50 (MIA PaCa-2 cells) [µM]	Structure (SMILES)
< 0.5	< 0.5	CS(=O)(=O)C1CCN(C(=O)c2cnc3ccsc3c2N2CCC(C#N)(c3ccccc3)CC2)CC1 [Example 293, 1-(6-(4-(methylsulfonyl)piperidine-1-carbonyl)thieno[3,2-b]pyridin-7-yl)-4-phenylpiperidine-4-carbonitrile]
< 0.5	< 0.5	CNC(=O)C1CCN(C(=O)c2cnc3ccc(F)cc3c2-c2ccc(C3(C#N)CC3)cc2)CC1 [Cpd. 333, 1-(4-(4-(1-cyanocyclopropyl)phenyl)-6-fluoroquinoline-3-carbonyl)-N-methylpiperidine-4-carboxamide]
0.5 to 1	> 10	CCC(=O)N1CCN(C(=O)c2cnc3ccccc3c2N2CCC(C)(C#N)CC2)CC1 [Example 94, 4-methyl-1-(3-(4-propionylpiperazine-1-carbonyl)quinolin-4-yl)piperidine-4-carbonitrile]
< 0.5	1 to 10	O=C(C1CC1)C1CCN(C(=O)c2cnc3cc(F)c(F)cc3c2N2CCC3(CC2)OCCO3)CC1 [Example 193, (4-(cyclopropanecarbonyl)piperidin-1-yl)(6,7-difluoro-4-(1,4-dioxa-8-azaspiro[4.5]decan-8-yl)quinolin-3-yl)methanone]
< 0.5	> 10	O=C(c1cnc2ccc(F)cc2c1N1CCC2(CC1)OCCO2)N1CCC(F)(F)CC1 [Example 50, (4,4-difluoropiperidin-1-yl)(6-fluoro-4-(1,4-dioxa-8-azaspiro[4.5]decan-8-yl)quinolin-3-yl)methanone]
< 0.5	< 0.5	N#CC1(c2ccc(F)cc2)CCN(c2c(C(=O)N3CCN(C(=O)C4CC4)CC3)cnc3ccc(F)cc23)CC1 [Example 278, 1-(3-(4-(cyclopropanecarbonyl)piperazine-1-carbonyl)-6-fluoroquinolin-4-yl)-4-(4-fluorophenyl)piperidine-4-carbonitrile]
< 0.5	> 10	CCOC(=O)N1CCN(C(=O)c2cnc3ccc(F)cc3c2N2CCC3(CC2)OCCO3)CC1 [Example 54, Ethyl 4-(6-fluoro-4-(1,4-dioxa-8-azaspiro[4.5]decan-8-yl)quinoline-3-carbonyl)piperazine-1-carboxylate]
< 0.5	1 to 10	CCN(CC)C(=O)N1CCN(C(=O)c2cnc3ccc(F)cc3c2N2CCC(C)(C#N)CC2)CC1 [Example 154, 4-(4-(4-cyano-4-methylpiperidin-1-yl)-6-fluoroquinoline-3-carbonyl)-N,N-diethylpiperazine-1-carboxamide]
1 to 10	1 to 10	N#CCC1CCN(c2c(C(=O)N3CCN(C(=O)C4CC4)CC3)cnc3ccc(F)cc23)CC1 [Example 213, 2-(1-(3-(4-(cyclopropanecarbonyl)piperazine-1-carbonyl)-6-fluoroquinolin-4-yl)piperidin-4-yl)acetonitrile]
0.5 to 1	1 to 10	CCN(CC)C(=O)N1CCN(C(=O)c2cnc3cc(F)c(F)cc3c2N2CCC(C)(C#N)CC2)CC1 [Example 174, 4-(4-(4-cyano-4-methylpiperidin-1-yl)-6,7-difluoroquinoline-3-carbonyl)-N,N-diethylpiperazine-1-carboxamide]
< 0.5	1 to 10	CCS(=O)(=O)N1CCN(C(=O)c2cnc3cc(F)c(F)cc3c2N2CCC3(CC2)OCCO3)CC1 [Example 171, (6,7-difluoro-4-(1,4-dioxa-8-azaspiro[4.5]decan-8-yl)quinolin-3-yl)(4-(ethylsulfonyl)piperazin-1-yl)methanone]
< 0.5	> 10	CCNC(=O)N1CCN(C(=O)c2cnc3cc(OC)c(OC)cc3c2N2CCC(C)(C#N)CC2)CC1 [Example 115, 4-(4-(4-cyano-4-methylpiperidin-1-yl)-6,7-dimethoxyquinoline-3-carbonyl)-N-ethylpiperazine-1-carboxamide]
< 0.5	< 0.5	N#CC1(c2ccccc2)CCN(c2c(C(=O)Nc3cnn(CCO)c3)cnc3ccc(F)cc23)CC1 [Cpd. 345, 4-(4-cyano-4-phenylpiperidin-1-yl)-6-fluoro-N-(1-(2-hydroxyethyl)-1H-pyrazol-4-yl)quinoline-3-carboxamide]
< 0.5	1 to 10	CC1(C#N)CCN(c2c(C(=O)N3CCC(S(C)(=O)=O)CC3)cnc3c(F)cc(F)cc23)CC1 [Example 189, 1-(6,8-difluoro-3-(4-(methylsulfonyl)piperidine-1-carbonyl)quinolin-4-yl)-4-methylpiperidine-4-carbonitrile]
< 0.5	< 0.5	CS(=O)(=O)C1CCN(C(=O)c2cnc3ccc(Cl)cc3c2N2CCC(C#N)(c3ccccc3)CC2)CC1 [Cpd. 310, 1-(6-chloro-3-(4-(methylsulfonyl)piperidine-1-carbonyl)quinolin-4-yl)-4-phenylpiperidine-4-carbonitrile]
< 0.5	< 0.5	N#CC1(c2ccc(-c3c(C(=O)Nc4cnn(CCO)c4)cnc4ccc(F)cc34)cc2)CC1 [Cpd. 343, 4-(4-(1-cyanocyclopropyl)phenyl)-6-fluoro-N-(1-(2-hydroxyethyl)-1H-pyrazol-4-yl)quinoline-3-carboxamide]
< 0.5	1 to 10	CNC(=O)Cn1cc(NC(=O)c2cnc3ccc(F)cc3c2-c2ccc(C3(C#N)CC3)cc2)cn1 [Cpd. 355, 4-(4-(1-cyanocyclopropyl)phenyl)-6-fluoro-N-(1-(2-(methylamino)-2-oxoethyl)-1H-pyrazol-4-yl)quinoline-3-carboxamide]
< 0.5	1 to 10	COc1ccc2c(N3CCC(C)(C#N)CC3)c(C(=O)N3CCN(C(=O)C(C)C)CC3)cnc2c1 [Example 103, 1-(3-(4-isobutyrylpiperazine-1-carbonyl)-7-methoxyquinolin-4-yl)-4-methylpiperidine-4-carbonitrile]
< 0.5	1 to 10	CCS(=O)(=O)N1CCN(C(=O)c2cnc3sccc3c2N2CCC(C)(C#N)CC2)CC1 [Example 218, 1-(5-(4-(ethylsulfonyl)piperazine-1-carbonyl)thieno[2,3-b]pyridin-4-yl)-4-methylpiperidine-4-carbonitrile]
< 0.5	0.5 to 1	N#CC1(c2ccccc2)CCN(c2c(C(=O)N3CCC(O)CC3)cnc3ccc(F)cc23)CC1 [Cpd. 331, 1-(6-fluoro-3-(4-hydroxypiperidine-1-carbonyl)quinolin-4-yl)-4-phenylpiperidine-4-carbonitrile]
1 to 10	> 10	CS(=O)(=O)N1CCN(C(=O)c2cnc3ccc(F)cc3c2N2CCN(S(C)(=O)=O)CC2)CC1 [Cpd. 307, (6-fluoro-4-(4-(methylsulfonyl)piperazin-1-yl)quinolin-3-yl)(4-(methylsulfonyl)piperazin-1-yl)methanone]
> 10	–	COc1ccc2ncc(C(=O)N3CCN(C(=O)C4CC4)CC3)c(NC3CCC3)c2c1 [Example 22, (4-(cyclobutylamino)-6-methoxyquinolin-3-yl)(4-(cyclopropanecarbonyl)piperazin-1-yl)methanone, TFA]
1 to 10	–	COc1ccc2ncc(C(=O)NC3CCN(C)CC3)c(N3CCC4(CC3)OCCO4)c2c1 [Example 16, 6-methoxy-N-(1-methylpiperidin-4-yl)-4-(1,4-dioxa-8-azaspiro[4.5]decan-8-yl)quinoline-3-carboxamide, TFA]
> 10	–	C[C@@H]1CN(c2c(C(=O)N3CCN(C(=O)C4CC4)CC3)cnc3ccc(F)cc23)C[C@H](C)O1 [Example 60, (4-(cyclopropanecarbonyl)piperazin-1-yl)(44(2S*,6R*)-2,6-dimethylmorpholino)-6-fluoroquinolin-3-yl)methanone]
> 10	–	COc1ccc2ncc(C(=O)N3CCN(C(=O)C4CC4)CC3)c(N3C[C@@H](C)O[C@@H](C)C3)c2c1 [Example 34, (4-(cyclopropanecarbonyl)piperazin-1-yl)(44(2S*,6R*)-2,6-dimethylmorpholino)-6-methoxyquinolin-3-yl)methanone]
> 10	–	COc1ccc2ncc(C(=O)N3CCN(C(=O)C4CC4)CC3)c(-n3cc(C)cn3)c2c1 [Example 35, (4-(cyclopropanecarbonyl)piperazin-1-yl)(6-methoxy-4-(4-methyl-1H-pyrazol-1-yl)quinolin-3-yl)methanone]
